The results in this text go back to patent US6602878B1, “Acylquanidine derivatives, method for preparing same, application as medicines and pharmaceutical compositions containing them” (Aventis Pharma S.A., priority 1998, dated 2003).

Chain of human αvβ3 receptor (P06756 31-889 limits assumed): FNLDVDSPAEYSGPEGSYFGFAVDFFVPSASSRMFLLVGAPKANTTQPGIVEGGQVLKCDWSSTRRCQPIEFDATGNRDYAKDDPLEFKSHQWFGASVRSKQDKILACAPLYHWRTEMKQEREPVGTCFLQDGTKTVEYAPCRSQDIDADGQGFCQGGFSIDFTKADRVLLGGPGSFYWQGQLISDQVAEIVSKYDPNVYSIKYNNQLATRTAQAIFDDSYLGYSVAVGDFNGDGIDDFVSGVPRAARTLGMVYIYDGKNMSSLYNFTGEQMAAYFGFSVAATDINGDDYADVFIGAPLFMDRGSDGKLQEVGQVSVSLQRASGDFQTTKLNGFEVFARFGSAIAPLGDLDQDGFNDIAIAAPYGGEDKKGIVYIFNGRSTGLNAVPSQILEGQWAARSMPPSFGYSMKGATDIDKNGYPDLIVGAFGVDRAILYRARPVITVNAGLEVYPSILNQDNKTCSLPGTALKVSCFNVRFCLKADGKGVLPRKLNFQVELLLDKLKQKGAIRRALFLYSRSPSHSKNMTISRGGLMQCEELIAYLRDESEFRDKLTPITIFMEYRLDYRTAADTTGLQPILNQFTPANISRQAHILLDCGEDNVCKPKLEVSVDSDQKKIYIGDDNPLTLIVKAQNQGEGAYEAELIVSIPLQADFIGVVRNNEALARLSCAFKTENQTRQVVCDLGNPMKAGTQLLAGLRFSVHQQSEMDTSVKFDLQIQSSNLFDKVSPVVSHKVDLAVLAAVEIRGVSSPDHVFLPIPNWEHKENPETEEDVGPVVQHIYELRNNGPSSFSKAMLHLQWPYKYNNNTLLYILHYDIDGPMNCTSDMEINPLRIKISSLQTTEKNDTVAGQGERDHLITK
Chain of human αvβ3 receptor (P06756 891-1048 partner limits assumed): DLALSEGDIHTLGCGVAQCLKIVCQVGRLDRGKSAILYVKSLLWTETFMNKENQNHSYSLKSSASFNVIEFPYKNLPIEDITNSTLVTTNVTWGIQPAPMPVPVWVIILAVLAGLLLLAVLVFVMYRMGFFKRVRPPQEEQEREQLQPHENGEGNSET
Chain of human αvβ3 receptor (P05106 27-788): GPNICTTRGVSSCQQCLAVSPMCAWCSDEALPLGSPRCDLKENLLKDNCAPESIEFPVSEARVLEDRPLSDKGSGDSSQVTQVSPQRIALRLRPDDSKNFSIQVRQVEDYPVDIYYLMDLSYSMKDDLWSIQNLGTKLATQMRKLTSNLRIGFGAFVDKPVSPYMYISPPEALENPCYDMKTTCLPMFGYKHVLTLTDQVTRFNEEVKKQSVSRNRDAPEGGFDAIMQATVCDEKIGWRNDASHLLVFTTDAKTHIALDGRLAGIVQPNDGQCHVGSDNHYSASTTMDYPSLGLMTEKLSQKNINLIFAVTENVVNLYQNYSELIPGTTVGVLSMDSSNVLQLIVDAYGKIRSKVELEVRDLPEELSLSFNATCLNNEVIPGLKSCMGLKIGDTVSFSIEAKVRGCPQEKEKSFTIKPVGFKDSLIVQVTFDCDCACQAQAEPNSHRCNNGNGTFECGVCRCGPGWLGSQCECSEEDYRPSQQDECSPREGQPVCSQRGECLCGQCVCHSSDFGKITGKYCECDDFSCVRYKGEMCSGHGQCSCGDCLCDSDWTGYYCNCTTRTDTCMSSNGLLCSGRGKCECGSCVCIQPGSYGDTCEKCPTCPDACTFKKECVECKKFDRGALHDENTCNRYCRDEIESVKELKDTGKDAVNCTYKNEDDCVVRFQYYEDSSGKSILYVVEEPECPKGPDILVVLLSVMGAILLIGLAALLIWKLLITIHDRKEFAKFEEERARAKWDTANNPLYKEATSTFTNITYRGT

The target of the assay is human αvβ3 receptor (Homo sapiens, UniProt P05106+P06756). Kind of assay: Kistrin/Vitronectin Receptor (αvβ3) ELISA Test. It counts as binding. To be noted: kistrin-coated plates, 3 hours at ambient temperature, OD 450 nm, read-out: K/VnR IC50. How it is done:
Kistrin/Vitronectin Receptor (αvβ3) ELISA Test
96-well MaxiSorp plates are coated overnight at […] with 100 μl of Kistrin at 1 μg/ml (dilution in coating buffer: 0.05 M (carbonate)/NaOH pH 9.6. The next day, the wells are emptied and the ligands (kistrin) are then fixed (fixation buffers: PBS containing 0.5% BSA (pH=7.4)) for 1 hour at ambient temperature under gentle agitation of 125 rpm. The wells are washed six times (washing buffer: PBS containing 0.05% Tween 20 (pH 7.7) then the following is added per well and in this order:
40 μl of incubation buffer
10 μl of the dilution of the product to be tested (the products are diluted in a 50:50 DMSO/water mixture)
50 μl of human αvβ3 receptor (cf Pytel et al. Methods Enzymol. (1987) 144 (Dilution in incubation buffer, adapted according to the batch of receptor and according to the ligand). The ligand, the αvβ3 receptor and the products to be studied are incubated for 3 hours at ambient temperature with gentle agitation of 125 rpm.
The wells are again washed six times, then incubated for 2 hours at ambient temperature with gentle agitation of 125 rpm, in the presence of 100 μl of anti-receptor antibody coupled to a peroxidase (The 4B12-HRP antibody is diluted in incubation buffer (50 mM TRIS pH 7.4; 0.5% BSA; 0.05% Tween 20; 1 mM MnCl2; 50 μM CaCl2; 50 μM MgCl2; 100 mM NaCl). The dilution is to be adapted according to the batch of receptor.
The wells are then washed six times before measurement of the ligand-receptor bond is carried out using a peroxidase developer kit (TBM Microwell Peroxidase Substrate System Kirkegaard; Ref cat 50-76-00).
This kit contains a flask A of substrate (3,3′,5,5′-tetramethylebenzidine at 0.4 g/l) and a flask B (H2O2 to 0.02% in Citrate/Citric acid). Extemporaneously, one volume of A is mixed with one volume of B, then the reaction mixture is distributed at a rate of 100 μl/wells.
The enzymatic reaction develops between 6 to 10 minutes for Kistrin/αvβ3 then its development is stopped by the addition of 100 μl of 1 M phosphoric acid. The optical density is determined at 450 nm.
Expression of the Results
The following curve is plotted: the bond percentage as a function of the logarithm of each concentration of the tested product.
For each product IC50 is determined according to the following formula:
B0=Maximum bond in the absence of any product
Bmin=Minimum bond in the presence of the highest
(In general: An ELISA detects its analyte on a solid surface through an enzyme-linked reagent.)
As for `CC(C)OC(=O)C(CCOc1ccc(CCC(=O)NC2=NCCCN2)cc1)NC(=O)OCc1ccccc1` (stereo not drawn) [Example 4, (1-Methyl)ethyl O—[4-[3-oxo-3-[(1.4,5,6-tetrahydro-2-pyrimidinyl)amino]-propyl]phenyl]-N-[(phenylmethoxy)carbonyl]-homoserinate], the IC50 is 5000 nM.

Consider `Cc1cc(C)c(S(=O)(=O)NC(CCOc2ccc(CCC(=O)NC3=NCCCN3)cc2)C(=O)O)c(C)c1` (stereo not drawn) [Example 6, O—[4-[3-oxo-3-[(1.4,5,6-tetrahydro-2-pyrimidinyl)amino]-propyl)phenyl]-N-[(2.4,6-trimethylphenyl)sulphonyl]-homoserine], for which the IC50 is 3.3 nM.

As for `O=C(CCc1ccc(OCC[C@H](NC(=O)OCC23CC4CC(CC(C4)C2)C3)C(=O)O)cc1)NC1=NCCCN1` [Example 5, O—[4-[3-oxo-3-[(1.4,5,6-tetrahydro-2-pyrimidinyl)amino]-propyl]phenyl]-N-[[(1-tricyclo[3.3.1.1^3,7]decyl)-methoxy]-carbonyl]-homoserine], the IC50 was found to be 12 nM.

On to `N=C(N)NC(=O)CCc1ccc(OCCC(NC(=O)OCc2ccccc2)C(=O)O)cc1` (stereo not drawn) [Example 1, O—[4-[3-[(aminoiminomethyl)amino]-3-oxopropyl]phenyl]-N-[(phenylmethoxy)carbonyl]-homoserine], for which the IC50 was found to be 31 nM.

Consider `CCOC(=O)C(CCOc1ccc(CCC(=O)NC2=NCCCN2)cc1)NC(=O)OCc1ccccc1` (stereo not drawn) [Example 3, Ethyl O—[4-[3-oxo-3-[(1.4,5,6-tetrahydro-2-pyrimidinyl)amino]-propyl]phenyl]-N [(phenylmethoxy)carbonyl]-homoserinate], for which the IC50 is 403 nM.

As to `O=C(CCc1ccc(OCCC(NS(=O)(=O)c2cccc3ccccc23)C(=O)O)cc1)NC1=NCCCN1` (stereo not drawn) [Example 7, O—[4-[3-oxo-3-[(1.4,5,6-tetrahydro-2-pyrimidinyl)amino]-propyl]phenyl]-N-[(1-naphthalenyl)sulphonyl]-homoserine], the IC50 was found to be 2.5 nM.

For the compound `O=C(CCc1cccc(OCCC(NC(=O)OCc2ccccc2)C(=O)O)c1)NC1=NCCCN1` (stereo not drawn) [Example 8, O—[3-[3-oxo-3-[(1,4,5,6-tetrahydro-2-pyrimidinyl)amino]-propyl]phenyl]-N-[(phenylmethoxy)carbonyl]-homoserine;], the IC50 is 13 nM.

As to `O=C(CCc1cccc(OCCCC(NC(=O)OCc2ccccc2)C(=O)O)c1)NC1=NCCCN1` (stereo not drawn) [Example 9, 5-[3-[3-oxo-3-[(1.4,5,6-tetrahydro-2-pyrimidinyl)amino]-propyl]phenoxy]-N-[(phenylmethoxy)carbonyl]-norvaline], the IC50 was determined as 110 nM.

Take `O=C(CCc1ccc(OCC[C@H](NC(=O)OCc2ccccc2)C(=O)O)cc1)NC1=NCCCN1` [Example 2, O—[4-[3-oxo-3-[(1,4,5,6-tetrahydro-2-pyrimidinyl)amino]-propyl]phenyl]-N-[(phenylmethoxy)carbonyl]-homoserine]: the IC50 came out at 7.3 nM.
